Where a name gives a salt, the structure may show the parent alone. Read-outs that look alike come from different tables or passages of the source.
Key:
[1] = system: Vero cells; conditions: African green monkey
[2] = system: DENV-2 strain 16681; test: Tetravalent RT-qPCR assay, serotype 2; format: cell-based, Dengue virus; conditions: for EC50: Dengue virus, DENV2, 72 h, RT-qPCR serotype 2 16681, Vero cells, day 3; for SI: RT-qPCR serotype 2 16681
Method: (§1) The antiviral activity of the compounds of the invention was tested against DENV-1 strain TC974#666 (NCPV), DENV-2 strain 16681, DENV-3 strain H87 (NCPV) and DENV-4 strain H241 (NCPV) in a RT-qPCR assay. Therefore, Vero cells were infected with either DENV-1, or -2, or -3, or -4 in the presence or absence of test compounds. At day 3 post-infection, the cells were lysed and cell lysates were used to prepare cDNA of both a viral target (the 3′UTR of DENV; Table 2) and a cellular reference gene (1-actin, Table 2). Subsequently, a duplex real time PCR was performed on a Lightcycler480 instrument. The generated Cp value is inversely proportional to the amount of RNA expression of these targets. Inhibition of DENV replication by a test compound results in a shift of Cp's for the 3′UTR gene. On the other hand, if a test compound is toxic to the cells, a similar effect on β-actin expression will be observed. The comparative ΔΔCp method is used to calculate EC50, which is based on the relative gene expression of the target gene (3′UTR) normalized with the cellular housekeeping gene (β-actin). In addition, CC50 values are determined based on the Cp values acquired for the housekeeping gene β-actin.
(§2) The culture medium consisted of minimal essential medium supplemented with 2% of heat-inactivated fetal calf serum, 0.04% gentamycin (50 mg/mL) and 2 mM of L-glutamine. Vero cells, obtained from ECACC, were suspended in culture medium and 75 μL/well was added in 96-well plates (10000 cells/well), which already contain the antiviral compounds. […] In addition, each plate contains wells which are assigned as virus controls (containing cells and virus in the absence of compound) and cell controls (containing cells in the absence of virus and compound). Once the cells were added in the plates, the plates were incubated in a fully humidified incubator (37° C., 5% CO2) until the next day. Dengue viruses serotype-1, 2, 3 and 4 were diluted in order to obtain a Cp of ˜22-24 in the assay. Therefore, 25 μL of virus suspension was added to all the wells containing test compound and to the wells assigned as virus control. In parallel, 25 μL of culture medium was added to the cell controls. Next, the plates were incubated for 3 days in a fully humidified incubator (37° C., 5% CO2). After 3 days, the supernatant was removed from the wells and the cells were washed twice with ice-cold PBS (˜100 μL). The cell pellets within the 96-well plates were stored at −80° C. for at least 1 day. Next, RNA was extracted using the Cells-to-CT™ lysis kit, according to the manufacturer's guideline (Life Technologies). The cell lysates can be stored at −80° C. or immediately used in the reverse transcription step.
(§3) In preparation of the reverse transcription step, mix A (table 3A) was prepared and 7.57 μL/well was dispensed in a 96-well plate. After addition of 5 μL of the cell lysates, a five minute denaturation step at 75° C. was performed (table 3B). Afterwards, 7.43 μL of mix B was added (table 3C) and the reverse transcription step was initiated (table 3D) to generate cDNA.
(§4) Finally, a RT-qPCR mix was prepared, mix C (table 4A), and 22.02 μL/well was dispensed in 96-well LightCycler qPCR plates to which 3 μL of cDNA was added and the qPCR was performed according to the conditions in table 4B on a LightCycler 480.
(§5) Using the LightCycler software and an in-house LIMS system, dose response curves for each compound were calculated and the half maximal effective concentration (EC50) and the half maximal cytotoxic concentration (CC50) were determined (Tables 5-8).

[3] = system: DENV-1 strain TC974#666; test: Tetravalent RT-qPCR assay, serotype 1; format: cell-based, Dengue virus; conditions: for EC50: Dengue virus, DENV1, 72 h, RT-qPCR serotype 1 TC974#666, Vero cells, day 3; for SI: RT-qPCR serotype 1 TC974#666
Method: as §1, §2, §3, §4, §5

[4] = in vitro; format: cell-based; conditions: African green monkey, CC50
Method: as §1, §2, §3, §4, §5

[5] = system: DENV-2 16681 strain; test: DENV-2 antiviral assay (eGFP-labeled virus in Vero cells); format: cell-based, Dengue virus; conditions: for EC50: DENV-2 16681 eGFP, Vero cells, MOI 0.5, 3 days; for SI: SI=CC50/EC50, DENV-2 antiviral assay
[6] = system: DENV-3 strain H87; test: Tetravalent RT-qPCR assay, serotype 3; format: cell-based, Dengue virus; conditions: for EC50: Dengue virus, DENV3, 72 h, RT-qPCR serotype 3 H87, Vero cells, day 3; for SI: RT-qPCR serotype 3 H87
Method: as §1, §2, §3, §4, §5

[7] = system: DENV-4 strain H241; test: Tetravalent RT-qPCR assay, serotype 4; format: cell-based, Dengue virus; conditions: for EC50: Dengue virus, DENV4, 72 h, RT-qPCR serotype 4 H241, Vero cells, day 3, read-out: EC50; for SI: RT-qPCR serotype 4 H241
Method: as §1, §2, §3, §4, §5

[8] = system: Vero cells; test: in vitro; format: cell-based; conditions: African green monkey, 3 days
Method: as §1, §2, §3, §4, §5

Compound | melting point | CC50 [1] | EC50 [2] | SI [2] | EC50 [3] | SI [3] | CC50 at 3 days [4] | EC50 [5] | SI [5] | EC50 [6] | SI [6] | EC50 [7] | SI [7] | CC50 [8]
COc1cc(NC(C(=O)N2CCc3ccc(OC(F)(F)F)cc32)c2ccc(Cl)cc2OCCCC(=O)O)cc(S(C)(=O)=O)c1 (racemic) (as salt: HCl) (hydrate or solvate) [Compound 9, 4-(5-chloro-2-(1-((3-methoxy-5-(methylsulfonyl)phenyl)amino)-2-oxo-2-(6-(trifluoromethoxy)indolin-1-yl)ethyl)phenoxy)butanoic acid] | 155 °C | – | – | – | – | – | – | – | – | – | – | – | – | –
COc1cc(NC(C(=O)N2CCc3ccc(OC(F)(F)F)cc32)c2ccc(F)cc2OCCO)cc(S(C)(=O)=O)c1 (single isomer, unassigned) [Compound 3B] | – | 8700 nM | 0.9 nM | 4760 | 1.1 nM | >3640 | > 2500 nM | 0.61 nM | 16300 | 13 nM | >444 | 72 nM | >32 | –
COc1cc(NC(C(=O)N2CCc3ccc(C(F)(F)F)cc32)c2ccc(Cl)cc2OCCCC(=O)O)cc(S(C)(=O)=O)c1 (single isomer, unassigned) [Compound 7B] | – | 11000 nM | 0.19 nM | >13500 | 0.13 nM | >19200 | > 2500 nM | 0.25 nM | 90600 | 5.2 nM | >473 | 24 nM | >186 | > 2500 nM
COc1cc(NC(C(=O)N2CCc3ccc(OC(F)(F)F)cc32)c2ccc(Cl)cc2OCCCC(=O)O)cc(S(C)(=O)=O)c1 (single isomer, unassigned) [Compound 9B] | – | 13000 nM | 0.068 nM | >56500 | 0.1 nM | >45500 | > 2500 nM | 0.15 nM | 83000 | 1.7 nM | >1840 | 7.2 nM | 1390 | –

From patent US11179368B2, “Substituted indoline derivatives as dengue viral replication inhibitors” (JANSSEN PHARMACEUTICALS, INC., priority 2017, dated 2021)
